US10308686B2, “Gamma-AApeptides with potent and broad-spectrum antimicrobial activity” (priority 2012, dated 2019)
In brackets after ≈: the same amount, converted by molar mass. Where two headings read alike, the source gives them in different places.

Legend:
[1] = tested on: human red blood cells (hRBC's); assay: Hemolysis assay; assay type: cell-based
Procedure: Freshly drawn human red blood cells (hRBC's) with additive K2 EDTA (spray-dried) were washed with PBS buffer several times and centrifuged at 1000 g for 10 min until a clear supernatant was observed. The hRBC's were resuspended in 1×PBS to get a 5% v/v suspension. Two-fold serial dilutions of γ-AApeptides dissolved in 1×PBS from 250 μg/ml through 1.6 μg/ml were added to a sterile 96-well plate to make up a total volume of 50 μL in each well. Then 50 μL of 5% v/v hRBC solution was added to make up a total volume of 100 μL in each well. The 0% hemolysis point and 100% hemolysis point were determined in 1×PBS and 0.2% Triton-X-100, respectively (Patch et al., 2003). The plate was then incubated at 37° C. for 1 h and centrifuged at 3500 rpm for 10 min. The supernatant (30 μL) was diluted with 100 μL of 1×PBS and absorption was detected by measuring the optical density at 360 nm by Biotek Synergy HT microtiter plate reader. % hemolysis was determined by the following equation: % hemolysis=(Abssample−AbsPBS)/(AbsTriton−AbsPBS)×100 H50 is the concentration of γ-AApeptide amphiphiles at which 50% hemolysis was observed. The highest concentration tested in the hemolytic assay was 500 μg/ml. 7. Fluorescence Microscopy
The sequences shown in FIG. 12 were also evaluated via hemolytic assays. Freshly drawn human red blood cells (hRBC's) with additive K2 EDTA (spray-dried) were washed with PBS buffer several times and centrifuged at 1000 g for 10 min until a clear supernatant was observed. The hRBC's were resuspended in 1×PBS to get a 5% v/v suspension. Two-fold serial dilutions of lipidated γ-AApeptides dissolved in 1×PBS from 1 mg/ml through 6.3 μg/ml were added to sterile 96-well plates to make up a total volume of 50 μL in each well. Then 50 μL of 5% v/v hRBC solution was added to make up a total volume of 100 μL in each well. The 0% hemolysis point and 100% hemolysis point were determined in 1×PBS and 0.2% Triton-X-100, respectively (Patch et al., 2003). The plate was then incubated at 37° C. for 1 h and centrifuged at 3500 rpm for 10 min. The supernatant (30 μL) was diluted with 100 μL of 1×PBS and absorption was detected by measuring the optical density at 360 nm with a Biotek Synergy HT microtiter plate reader. % hemolysis was determined by the following equation: % hemolysis=(Abs sample−Abs PBS)/(Abs Triton−Abs PBS)×100

[2] = tested on: methicillin-resistant S. aureus (ATCC 33592)
[3] = tested on: multi-drug resistant S. epidermidis (RP62A)
[4] = tested on: multi-drug resistant P. aeruginosa ATCC 27853
[5] = tested on: K. pneumoniae (ATCC 13383)
[6] = tested on: vancomycin-resistant E. faecalis (ATCC 700802)
[7] = Table 5, first value of H10/H50
[8] = Table 5, second value of H10/H50

Row | SMILES | Hemolysis H10 [1, 7] [µg/mL] | Hemolysis H50 [1, 8] [µg/mL] | MIC, S. aureus (MRSA) ([2]; ATCC 33592) [mg/L] | MIC, S. epidermidis (MRSE) ([3]; multi-drug resistant (RP62A)) [mg/L] | MIC, K. pneumoniae [5] [mg/L] | MIC, E. faecalis (VREF) ([6]; ATCC 700802) [mg/L] | MIC, Fungus C. albicans (C. albicans (ATCC 10231); ATCC 10231) [mg/L] | Hemolysis H10 [1] [µg/mL] | Hemolysis H50 [1] [µg/mL] | MIC, S. aureus (MRSA) ([2]; Table 5) | MIC, S. epidermidis (MRSE) ([3]; Table 5) [mg/L] | MIC, E. faecalis (VREF) ([6]; Table 5) [mg/L] | further results
1 | CC(C)CCC(=O)N1CC(=O)N[C@@H](CCCCN)CN(C(=O)CCc2ccccc2)CC(=O)N[C@@H](CCCCN)CN(C(=O)CCc2ccccc2)CC(=O)N[C@@H](Cc2ccccc2)CN(CC(N)=O)C(=O)CCC(=O)N[C@@H](CCCCN)CN(C(=O)CCc2ccccc2)CC(=O)N[C@@H](CCCCN)CN(C(=O)CCc2ccccc2)CC(=O)N[C@@H](CCCCN)CN(C(=O)CCc2ccccc2)CC(=O)N[C@@H](Cc2ccccc2)C1 [HW-B-11] | 200 | > 500 | 5 (≈ 2.39 µM) | 2 (≈ 0.955 µM) | 20 (≈ 9.55 µM) | 15 (≈ 7.16 µM) |  |  |  |  |  |  | MIC, P. aeruginosa ([4]; Table 5): 10 mg/L (≈ 4.77 µM); MIC, Fungus C. albicans (C. albicans (ATCC 10231); Table 5): 5 mg/L (≈ 2.39 µM)
2 | CC(C)CCC(=O)N1CC(=O)N[C@@H](Cc2ccccc2)CN(C(=O)CCC(C)C)CC(=O)N[C@@H](Cc2ccccc2)CN(C(=O)CCC(C)C)CC(=O)N[C@@H](CCCCN)CN(C(=O)CCc2ccccc2)CC(=O)N[C@@H](CCCCN)CN(C(=O)CCc2ccccc2)CC(=O)N[C@@H](CCCCN)CN(C(=O)CCc2ccccc2)CC(=O)N[C@@H](Cc2ccccc2)CN(CC(N)=O)C(=O)CCC(=O)N[C@@H](Cc2ccccc2)C1 [HW-B-14] | 45 | 300 | 3 (≈ 1.45 µM) | 2 (≈ 0.969 µM) | 10 (≈ 4.84 µM) | 5 (≈ 2.42 µM) | 4 (≈ 1.94 µM) |  |  |  |  |  | 
3 | CCCCCCCCCCCCCCCC(=O)N[C@@H](C)CN(CC(=O)N[C@@H](C)CN(CC(=O)N[C@@H](CC(C)C)CN(CC(=O)N[C@@H](CC(C)C)CN(CC(=O)N[C@@H](CC(C)C)CN(CC(N)=O)C(=O)CCCN)C(=O)CCCN)C(=O)CCCN)C(C)=O)C(C)=O [Sequence 6] |  |  |  |  |  |  |  |  |  |  |  |  | Hemolysis HC10 ([1]; red cells of human): 60 µg/mL; Hemolysis HC50 ([1]; red cells of human): > 500 µg/mL; MIC, Gram positive S. aureus ([2]; Table 7): 4 mg/L (≈ 3.1 µM); MIC, Gram positive S. epidermidis ([3]; Table 7): 4 mg/L (≈ 3.1 µM); MIC, Gram negative P. aeruginosa ([4]; ATCC 27853): 5 mg/L (≈ 3.87 µM); MIC, Gram negative K. pneumoniae [5]: 5 mg/L (≈ 3.87 µM); MIC, Gram positive B. subtilis (B. subtilis (BR151)): 2.5 mg/L (≈ 1.94 µM); MIC, Gram positive E. faecalis ([6]; Table 7): 5 mg/L (≈ 3.87 µM); MIC, Gram negative E. coli (E. coli (JM109)): 2.5 mg/L (≈ 1.94 µM)
4 | NCCCC[C@H]1CN(C(=O)CCc2ccccc2)CC(=O)N[C@@H](CCCCN)CN(C(=O)CCc2ccccc2)CC(=O)N[C@@H](CCCCN)CN(C(=O)CCc2ccccc2)CC(=O)N[C@@H](CCCCN)CN(C(=O)CCc2ccccc2)CC(=O)N[C@@H](CCCCN)CN(C(=O)CCc2ccccc2)CC(=O)N[C@@H](CCCCN)CN(C(=O)CCc2ccccc2)CC(=O)N[C@@H](Cc2ccccc2)CN(CC(N)=O)C(=O)CCC(=O)N1 [HW-B-5] |  |  |  |  | > 50 |  | > 50 | > 500 | > 500 | 25-50 | 8 (≈ 3.79 µM) | 20 (≈ 9.48 µM) | MIC, P. aeruginosa ([4]; ATCC 27853): 18 mg/L (≈ 8.53 µM); MIC, B. subtilis (B. subtilis (BR151)): 5 mg/L (≈ 2.37 µM)
5 | CC(C)CCC(=O)N1CC(=O)N[C@@H](Cc2ccccc2)CN(C(=O)CCC(C)C)CC(=O)N[C@@H](CCCCN)CN(C(=O)CCc2ccccc2)CC(=O)N[C@@H](CCCCN)CN(C(=O)CCc2ccccc2)CC(=O)N[C@@H](CCCCN)CN(C(=O)CCc2ccccc2)CC(=O)N[C@@H](CCCCN)CN(C(=O)CCc2ccccc2)CC(=O)N[C@@H](Cc2ccccc2)CN(CC(N)=O)C(=O)CCC(=O)N[C@@H](Cc2ccccc2)C1 [HW-B-13] |  |  |  |  | 8 (≈ 3.85 µM) |  | 2 (≈ 0.962 µM) | 40 | 100 | 1 | 2 (≈ 0.962 µM) | 5 (≈ 2.4 µM) | 
